Results reported in patent US10047151B2, “Methods for the treatment of cancer and inflammatory diseases using cereblon as a predictor” (Celgene Corporation, priority 2011, dated 2018).

Assays:
Type in all cases: cell-based
[1] = tested on: NF-κB; test: NF-κB subunit DNA binding ELISA on nuclear extracts
Method: Logarithmically growing DLBCL cells were treated with test agents as indicated. Nuclear extracts were prepared using a Nuclear Extract Kit (Active Motif, Carlsbad, Calif.) and protein concentration was determined by the bicinchoninic acid assay (Thermo Scientific, Rockford, Ill.). Detection of NF-κB activity was performed using a sensitive oligo-based colorimetric enzyme-linked immunosorbent assay (ELISA) method, according to the instructions of the manufacturer (Active Motif). Briefly, nuclear extracts of DLBCL cells were hybridized to 96-well plates coated with wild-type DNA oligonucleotides containing a single copy of the NF-κB consensus binding sequence. Bound NF-κB protein was then detected with antibodies specific for p50, p65 (Rel A) or […] subunits. A secondary antibody conjugated to horseradish peroxidase was added and plates were then read by spectrophotometry at 450 nm with a reference wavelength of 655 nm. NF-κB activity was calculated based on OD450/655 nm.
The effect of lenalidomide on NF-κB activity in various DLBCL cells was examined by measuring the level of NF-κB subunit proteins binding to consensus sequences and the NF-κB-driven luciferase activity. […] In contrast, lenalidomide had no effect on NF-κB DNA binding in GCB-DLBCL lines nor in normal peripheral blood mononuclear cells.

[2] = tested on: NF-κB; test: NF-κB-driven luciferase reporter gene assay in DLBCL cells; settings: OCI-Ly10 and U2932; 2 day drug treatment
Method: For the NF-κB-driven luciferase reporter gene assay, cells were transfected with the pGL4.32 [luc2P/NF-κB-RE/Hygro] plasmid (Promega, Madison, Wis.) using Nucleofector kit V and program 013 according to the manufacturer's protocol (Amaxa Biosystems, Gaithersburg, Md.). After 24 hours of transfection, cells were treated with test agents for 2 days and lysates were prepared using the Dual-Glo® Luciferase Assay System (Promega). Luciferase activities of each sample were measured using a TopCount NXT Microplate Scintillation and Luminescence Counter (Packard BioScience).
To knockdown IRF4, cells were transfected with Silencer® Select siRNA (small interfering RNA, Applied Biosystems) directed against IRF4, CRBN, or Silencer® Select Negative Control siRNAs at a final concentration of 0.2-1 μM using Nucleofector® Kit V for transfection. For IRF4 overexpression, cells were transfected with IRF4- or green fluorescent protein (GFP)-cytomegalovirus (CMV) expression plasmids (OriGene Technologies, Rockville, Md.) for 24 h using the Cell Line Nucleofector kit V as above-mentioned. After 24 hours of transfection, cells were treated with lenalidomide for 2 days before luciferase assay, RT-PCR gene expression analysis and Western blot. […]

[3] = tested on: DLBCL cells; test: 3H-thymidine incorporation cell proliferation assay in DLBCL cell lines; settings: 0.01-100 μM, 5 days
Method: Cell proliferation was assessed using the ^3H-thymidine incorporation assay. Briefly, logarithmically growing DLBCL cells were cultured in 96-well culture plates in complete media with the indicated concentration of lenalidomide or DMSO control. Following incubation at 37° C. for 5 days, 1 μCi ^3H-thymidine (GE Healthcare Biosciences, Piscataway, N.J.) was added to each well for the final 5 hours of incubation. Cells were then harvested onto UniFilter GF/C filter plates (PerkinElmer, Waltham, Mass.) using a cell harvester (Tomtec, Hamden, Conn.) and the plates were allowed to dry overnight. The ^3H-thymidine incorporation of each well was then measured using a TopCount NXT Microplate Scintillation and Luminescence Counter (Packard BioScience, Meriden, Conn.). The percent inhibition of cell proliferation was calculated and normalized to DMSO control.
In order to define the place of lenalidomide for DLBCL therapy in specific patient populations and to understand the molecular mechanisms of efficacy, a panel of DLBCL cell lines was collected in this study. The DLBCL subtypes of the cell lines were confirmed based on literature information (Lenz G, et al., Proc Natl Acad Sci USA 2008; 105: 13520-5) and molecular analysis, including intracellular NF-κB activity or IRF4 expression, as well as gene expression profiling of key signature genes of activated B cells.

[4] = tested on: U266B1 cells; test: Cell cycle progression (cells in S phase) in siRNA-transfected U266B1 cells; settings: control mock and negative control siRNA-transfected cells; average of 3 days of treatment; pomalidomide 1 μM, lenalidomide 10 μM
Method: Drugs such as lenalidomide and pomalidomide have direct anti-proliferative activity against MM cells by inducing cell cycle arrest in G1 phase, followed by a decrease in viability. To study the role of CRBN in lenalidomide and other drugs anti-proliferative activities, H929 and U266B1 cells, two sensitive myeloma lines, were transfected with CRBN-siRNAs or control siRNAs for 24, 48, 72 and 96 hours. Cells were treated 24 h after transfection with DMSO (0.1%), pomalidomide (1 μM) and lenalidomide (10 μM) for 1, 2, 3 days to evaluated the compound effect on CRBN protein, mRNA expression and the effect on cell cycle and proliferation. […] CRBN down regulation was confirmed by RT-PCR and Western blot using the CRBN70 antibody (FIG. 1).
Knockdown of CRBN markedly abrogated the lenalidomide and pomalidomide-induced delay in cell cycle progression in U266B1 cells. Id.

[5] = tested on: IRF4; test: IRF4 protein level in H929 cells (Western blot)
Text: In H929 cells, the cell cycle arrest in G1 phase by the drugs coincides with a reduction of tumor suppressor, pRb, phosphorylation and the oncogene and myeloma survival factor IRF4.

[6] = tested on: U266; test: Ubiscan ubiquitinated peptide quantification in U266
Text: The effects of lenalidomide and pomalidomide on protein ubiquination were investigated using CST Ubiscan technology. Treated samples were sent to Cell Signaling Technology for ubiquinated peptide enrichment and quantification by LC/MS/MS. […] In the MG132 combo, more ubiquinated peptides are observed (compared with their controls). […] These peptides correspond to 176 unique proteins. Top few groups are: nucleosome, chromatin, protein-DNA complex assembly, Histone H2A. Among the 176 proteins, we found five proteins that belong to “ubiquitin-protein ligase activity” category, they are MDM2, HERC2, UBE2D3 (only by pomalidomide), UBE2N (lenalidomide only), UBE2M (both). Results for hits categorized by conditions are shown in FIGS. 8 & 9 (without MG132) and FIGS. 10 & 11 (with MG132).

Structure (SMILES): Nc1cccc2c1CN(C1CCC(=O)NC1=O)C2=O (stereo not shown) [lenalidomide, 3-(4-amino-1-oxo-1,3-dihydro-isoindol-2-yl)-piperidine-2,6-dione]
- NF-κB DNA binding ([1]; GCB-DLBCL lines and normal peripheral blood mononuclear cells): no effect
- NF-κB inhibition ([1]; lenalidomide-insensitive ABC-DLBCL OCI-Ly3 line with CARD11 mutation): not by lenalidomide
- DNA binding by Rel A/p65, p50 and c-rel/p70 NF-κB subunits ([1]; several ABC-DLBCL cell lines, concentration-dependent): partially inhibited
- inhibition of transcriptional activity of NF-κB [2]: 32-56%
- proliferation of cells ([3]; ABC-DLBCL cell lines, except for OCI-Ly3): significantly inhibited
- proliferation of cells ([3]; PBML and GCB-DLBCL cells): minimal effects
- delay of cell cycle progression, measured as the decrease of the number of cells in S phase [4]: 40%
- total level of protein IRF4 [5]: decreased
- Ub-proteins increased in abundance [6]: IKZF3, RPL19, PCM1 and NEDD8
- proteins decreased in abundance [6]: GNB2L1 and HNRNPR
